Measured values published in paper PMC12591182, “PD‐L1‐Targeting Biomimetic Photoresponsive Thermosensitive Liposomes for Triple‐Negative Breast Cancer” (Advanced Science, 2025).

Tested on: PD-L1 expression in 4T1 cells
Assay: Immunoblot analysis of PD-L1 expression
Format: cell-based, mouse
Conditions: 4T1 cells cultured 48 h after exposure at 42 ℃ for 10 min
Protocol: fluctuations were continuously recorded using an infrared thermal imaging camera (FLIR E50, USA).
Cell lysis and immunoblotting
Cells were washed with PBS and lysed using RIPA buffer supplemented with protease inhibitors. The lysates were subjected to SDS-PAGE (12% or 10% Bis-Tris gel) and subsequently transferred onto a nitrocellulose membrane. The membrane was blocked with TBS-T containing 5% non-fat dry milk, followed by overnight incubation with the primary antibody at 4 °C. After triplicate washing with TBS-T, the membrane was incubated with the HRP-conjugated secondary antibody for 1 h at room temperature and developed using ECL detection reagents.
The TRIzol reagent was used for RNA extraction according to the manufacturer's instructions. Total RNA was reverse -transcribed into cDNA using an iScript cDNA synthesis kit. Quantitative analysis of the target genes was performed using the Universal SYBR Green Supermix qPCR kit. GAPDH was used as the reference gene for relative quantification normalization, with details of the primer sequences provided in Supplementary Table 1. […]
The lysis buffer was then neutralized by adding an equal volume of RPMI 1640 medium, followed by centrifugation at 500 × g for 3 min. […] After incubation, the cells were washed with PBS to remove T cells and debris, followed by crystal violet staining to quantify the live cancer cells. […]

Substance: GFTATPPPDSPQEP/PEIF [PTPRF, fluorinated PTPR: PTPR combined with fluorinated polyethyleneimine PEIF]
- concentration that effectively inhibited PD-L1 expression: 10 µM
